According to US10604484B2, “Indolone compounds and their use as AMPA receptor modulators” (Janssen Pharmaceutica NV, priority 2015, dated 2020):

target: T1, GluA1o-γ8 (Homo sapiens, UniProt P42261+Q8WXS5); test: Calcium flux assay (FLIPR), inhibition of glutamate response of GluA1o-γ8 channel in HEK293 cells; assay type: cell-based; details: HEK293 cells stably expressing GRIA1o-CACNG8 fusion; 15 μM glutamate; pIC50 = negative log of the IC50 in molar
T1 construct: expressed in transfected cells
Text: This assay was used to test compounds for their ability to inhibit TARP γ8 dependent AMPA receptor activity. The AMPA receptor is a non-selective cation channel activated by glutamate. Ionotropic glutamate receptors normally desensitize too rapidly to allow detectable calcium influx in a FLIPR assay (Strange et al. (2006). “Functional characterisation of homomeric ionotropic glutamate receptors GluR1-GluR6 in a fluorescence-based high throughput screening assay.” Comb Chem High Throughput Screen 9(2): 147-158). But, this desensitization is incomplete, and a substantial steady-state current remains in the sustained presence of glutamate (Cho et al. (2007). “Two families of TARP isoforms that have distinct effects on the kinetic properties of AMPA receptors and synaptic currents.” Neuron 55(6): 890-904).
An in vitro assay was used to determine the potency of test compounds as inhibitors of the glutamate response of the channel formed by GluA1o-γ8. To ensure a 1:1 stoichiometry of GluA1o and γ8 subunits in the expressed channel, a fusion of the cDNAs for GRIA1o and CACNG8 was used. Following Shi et al (2009) “The stoichiometry of AMPA receptors and TARPs varies by neuronal cell type.” Neuron 62(5): 633-640), the C-terminus of the cDNA for GRIA1o was fused to the N-terminus of the cDNA for γ8. The linker sequence was QQQQQQQQQQEFAT. Channels expressed with this construct appear to have similar properties to channels formed by co-expression of GRIA1o with an excess of CACNG8 (Shi et al. 2009). A clonal cell line in HEK293 cells stably expressing this construct, with a geneticin selection marker, was generated for use in this assay. Cell expressing the GRIA1o-CACNG8 fusion construct were grown in a monolayer in 96- or 384-well microtiter plates. They were washed with assay buffer (135 mM NaCl, 4 mM KCl, 3 mM CaCl2, 1 mM MgCl2, 5 mM glucose, 10 mM HEPES, pH 7.4, 300 mOs) using a Biotek EL405 plate washer. The cells were then loaded with a calcium-sensitive dye (Calcium-5 or Calcium-6, Molecular Devices) and the test compounds at a range of concentrations. Calcium flux following the addition of 15 μM glutamate was monitored using a Molecular Devices FLIPR Tetra.
The fluorescence in each well was normalized to the fluorescence of negative and positive control wells. The negative control wells had no added compounds, and the positive control wells had been incubated with 10 μM CP465022 (a non-subtype-selective AMPA receptor antagonist) (Lazzaro et al. (2002). “Functional characterization of CP-465,022, a selective, noncompetitive AMPA receptor antagonist.” Neuropharmacology 42(2): 143-153). The responses to glutamate as functions of the test compound concentrations were fitted to a four-parameter logistic function. The fitted parameter corresponding to the midpoint was taken to be the potency of inhibition of the compound. The data in Table 4 below illustrates the observed potentcy for the compounds described herein. pIC50 refers to the negative log of the IC50 in molar.

T1 sequence (P42261+Q8WXS5 fused): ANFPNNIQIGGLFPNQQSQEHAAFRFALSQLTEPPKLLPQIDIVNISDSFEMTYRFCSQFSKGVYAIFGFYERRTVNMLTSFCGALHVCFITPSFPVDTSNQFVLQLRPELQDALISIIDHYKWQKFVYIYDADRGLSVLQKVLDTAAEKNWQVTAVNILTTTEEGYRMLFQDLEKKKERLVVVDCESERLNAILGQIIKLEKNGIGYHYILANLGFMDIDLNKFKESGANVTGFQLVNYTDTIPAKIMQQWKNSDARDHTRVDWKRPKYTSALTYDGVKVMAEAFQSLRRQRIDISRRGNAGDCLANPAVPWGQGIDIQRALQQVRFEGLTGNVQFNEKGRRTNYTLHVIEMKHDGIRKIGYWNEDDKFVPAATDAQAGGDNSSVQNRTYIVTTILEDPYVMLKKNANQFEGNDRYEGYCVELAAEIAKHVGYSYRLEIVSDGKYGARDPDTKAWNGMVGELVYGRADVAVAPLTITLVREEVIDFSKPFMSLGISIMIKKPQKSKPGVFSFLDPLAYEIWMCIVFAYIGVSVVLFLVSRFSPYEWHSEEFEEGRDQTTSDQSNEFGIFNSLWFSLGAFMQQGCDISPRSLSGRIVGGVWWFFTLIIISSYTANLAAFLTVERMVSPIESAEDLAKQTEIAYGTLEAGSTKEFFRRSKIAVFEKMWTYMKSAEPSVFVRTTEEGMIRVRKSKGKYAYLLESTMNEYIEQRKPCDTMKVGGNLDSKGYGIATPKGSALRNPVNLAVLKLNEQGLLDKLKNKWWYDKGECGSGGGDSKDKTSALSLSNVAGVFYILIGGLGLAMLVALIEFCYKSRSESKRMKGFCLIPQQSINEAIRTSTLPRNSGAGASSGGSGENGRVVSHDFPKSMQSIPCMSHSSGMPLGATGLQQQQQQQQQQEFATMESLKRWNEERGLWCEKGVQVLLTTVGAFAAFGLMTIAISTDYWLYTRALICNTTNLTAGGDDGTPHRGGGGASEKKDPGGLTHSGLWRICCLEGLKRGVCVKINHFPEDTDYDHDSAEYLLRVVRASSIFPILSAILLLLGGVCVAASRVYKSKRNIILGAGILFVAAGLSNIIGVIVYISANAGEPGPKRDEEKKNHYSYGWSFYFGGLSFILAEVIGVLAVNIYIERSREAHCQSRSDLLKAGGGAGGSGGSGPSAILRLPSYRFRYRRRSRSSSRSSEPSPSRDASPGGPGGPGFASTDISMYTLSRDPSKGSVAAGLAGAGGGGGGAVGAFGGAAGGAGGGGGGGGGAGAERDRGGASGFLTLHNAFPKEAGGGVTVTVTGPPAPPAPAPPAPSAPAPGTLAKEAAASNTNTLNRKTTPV

SMILES	GluR1-γ8 pIC50
O=C1Cc2cc(-c3c(Cl)cccc3OC(F)(F)F)ccc2N1 [Example 5, 5-[2-Chloro-6-(trifluoromethoxy)phenyl]indolin-2-one]	7.8

same assay, conditions: HEK293 cells stably expressing GRIA1o-CACNG8 fusion; 15 μM glutamate; pIC50 = negative log of the IC50 in molar; read-out: GluR1-γ8 pIC50 (converted)

IC50	SMILES
1 nM	Cc1cc(-c2c(Cl)cccc2OC(F)F)cc2c1NC(=O)C2 [Example 128, 5-[2-Chloro-6-(difluoromethoxy)phenyl]-7-methyl-indolin-2-one]
31.6 nM	COc1nccc(C)c1-c1cc(C)c2c(c1)CC(=O)N2 [Example 150, 5-(2-Methoxy-4-methyl-3-pyridyl)-7-methyl-indolin-2-one]
1.58 nM	Cc1cccc(C#N)c1-c1cc(Cl)c2c(c1)CC(=O)N2 [Example 164, 2-(7-Chloro-2-oxo-indolin-5-yl)-3-methyl-benzonitrile]
1.58 nM	O=C1Cc2cc(-c3c(Cl)ccnc3Cl)cc(Cl)c2N1 [Example 163, 7-Chloro-5-(2,4-dichloro-3-pyridyl)indolin-2-one]
> 10000 nM	COc1cccc(OC(F)F)c1-c1cc(F)c2c(c1)CC(=O)N2 [Example 123, 5-[2-(Difluoromethoxy)-6-methoxy-phenyl]-7-fluoro-indolin-2-one]
100 nM	Cc1cc(-c2cccc(C#N)c2C)cc2c1NC(=O)C2 [Example 134, 2-Methyl-3-(7-methyl-2-oxo-indolin-5-yl)benzonitrile]
79.4 nM	CC(C)(C#N)c1cccc(Cl)c1-c1ccc2c(c1)CC(=O)N2 [Example 81, 2-[3-Chloro-2-(2-oxoindolin-5-yl)phenyl]-2-methyl-propanenitrile]
631 nM	Cc1cc(-c2c(C)ccnc2C)cc2c1NC(=O)C2 [Example 151, 5-(2,4-Dimethyl-3-pyridyl)-7-methyl-indolin-2-one]
5.01 nM	Cc1cc(-c2c(F)cccc2OC(F)F)cc2c1NC(=O)C2 [Example 131, 5-[2-(Difluoromethoxy)-6-fluoro-phenyl]-7-methyl-indolin-2-one]
0.501 nM	Cc1cc(-c2c(Cl)cccc2C(C)(C)C#N)cc2c1NC(=O)C2 [Example 132, 2-[3-Chloro-2-(7-methyl-2-oxo-indolin-5-yl)phenyl]-2-methyl-propanenitrile]
0.251 nM	CCc1cc(-c2c(C)cccc2Cl)cc2c1NC(=O)C2 [Example 170, 5-(2-Chloro-6-methyl-phenyl)-7-ethyl-indolin-2-one]
0.631 nM	N#Cc1cc(-c2c(Cl)cccc2OC(F)(F)F)cc2c1NC(=O)C2 [Example 175, 5-[2-Chloro-6-(trifluoromethoxy)phenyl]-2-oxo-indoline-7-carbonitrile]
0.794 nM	COc1cc(-c2c(Cl)cccc2OC(F)(F)F)cc2c1NC(=O)C2 [Example 178, 5-[2-Chloro-6-(trifluoromethoxy)phenyl]-7-methoxy-indolin-2-one]
0.2 nM	CCc1cc(-c2c(C)cccc2C(F)(F)F)cc2c1NC(=O)C2 [Example 172, 7-Ethyl-5-[2-methyl-6-(trifluoromethyl)phenyl]indolin-2-one]
6310 nM	COC1CCN(c2cccc(-c3ccc4c(c3)CC(=O)N4)c2Cl)CC1 [Example 179, 5-[2-Chloro-3-(4-methoxy-1-piperidyl)phenyl]indolin-2-one]
7.94 nM	Cc1cc(-c2c(Cl)cncc2Cl)cc2c1NC(=O)C2 [Example 147, 5-(3,5-Dichloro-4-pyridyl)-7-methyl-indolin-2-one]
1.58 nM	CCc1cc(-c2c(C)cccc2F)cc2c1NC(=O)C2 [Example 171, 7-Ethyl-5-(2-fluoro-6-methyl-phenyl)indolin-2-one]
2.51 nM	Cc1cc(-c2c(C)cccc2C#N)cc2c1NC(=O)C2 [Example 138, 3-Methyl-2-(7-methyl-2-oxo-indolin-5-yl)benzonitrile]
25.1 nM	O=C1Cc2cc(-c3c(Cl)cccc3Br)ccc2N1 [Example 2, 5-(2-Bromo-6-chlorophenyl)indolin-2-one]
0.126 nM	Cc1cc(-c2c(Cl)ccc(C#N)c2OC(F)(F)F)cc2c1NC(=O)C2 [Example 133, 4-Chloro-3-(7-methyl-2-oxoindolin-5-yl)-2-(trifluoromethoxy)benzonitrile]
2.51 nM	Cc1cc(-c2c(C)cccc2C)cc2c1NC(=O)C2 [Example 142, 5-(2,6-Dimethylphenyl)-7-methyl-indolin-2-one]
12.6 nM	Cc1cc(-c2c(Cl)cnc(C(F)(F)F)c2Cl)cc2c1NC(=O)C2 [Example 144, 5-(3,5-Dichloro-2-(trifluoromethyl)pyridin-4-yl)-7-methylindolin-2-one]
0.316 nM	Cc1cccc(C(F)(F)F)c1-c1cc(Cl)c2c(c1)CC(=O)N2 [Example 167, 7-Chloro-5-[2-methyl-6-(trifluoromethyl)phenyl]indolin-2-one]
316 nM	Cc1cc(-c2c(F)cccc2F)cc2c1NC(=O)C2 [Example 140, 5-(2,6-Difluorophenyl)-7-methyl-indolin-2-one]
12.6 nM	COc1cccc(OC(F)F)c1-c1cc(C)c2c(c1)CC(=O)N2 [Example 130, 5-[2-(Difluoromethoxy)-6-methoxy-phenyl]-7-methyl-indolin-2-one]
251 nM	Cc1cncc(C)c1-c1cc(F)c2c(c1)CC(=O)N2 [Example 125, 5-(3,5-Dimethyl-4-pyridyl)-7-fluoro-indolin-2-one]
2 nM	Cc1cc(-c2c(F)cccc2Cl)cc2c1NC(=O)C2 [Example 141, 5-(2-Chloro-6-fluoro-phenyl)-7-methyl-indolin-2-one]
3.16 nM	O=C1Cc2cc(-c3c(Cl)cccc3OC(F)(F)F)cc(F)c2N1 [Example 117, 5-(2-Chloro-6-(trifluoromethoxy)phenyl)-7-fluoroindolin-2-one]
